This is an account of results in US20130116225A1, “METHOD FOR TREATING HEMATOLOGICAL CANCERS” (NIIKI PHARMA INC., priority 2010, published 2013).

Entries after “also recorded” stand apart in the source; their conditions may differ. Read-outs that look alike come from different tables or passages of the source.

For series [1], the system named is ARH-77 multiple myeloma cells. Briefly: Anti-proliferation assay, Cell Titer-Glo (Example 3). It is filed as cell-based, human. Particulars: 96 hours total culture. The procedure:
(§1) To determine the growth inhibitory activity of tris(8-quinolinolato)gallium(III) and lenalidomide, a representative panel of human multiple myeloma tumor cell lines (OPM-2, RPMI-8226, NCI-H929 and ARH-77) were tested with the compounds in anti-proliferation assays. Specifically, the human tumor cells were placed in a 96-well microculture plate at the appropriate density for 96 hours of total growth time. After 24 hours of incubation in a humidified incubator at 37° C. with 5% CO2 and 95% air, serially diluted test agents in growth medium were added to each well. After 96 total hours of culture in a CO2 incubator, the plates were processed with Cell Titer-Glo (Promega #G7571) according to manufacturer's instructions. Luminescence was detected using a Tecan GENios microplate reader. Percent inhibition of cell growth was calculated relative to untreated control wells. All tests were performed in duplicate at each concentration level.
(§2) The IC50 value for the test agents was estimated using Prism 3.03 by curve-fitting the data using the following four parameter-logistic equation: […]
(§3) where Top is the maximal % of control absorbance, Bottom is the minimal % of control absorbance at the highest agent concentration, Y is the % of control absorbance, X is the agent concentration, IC50 is the concentration of agent that inhibits cell growth by 50% compared to the control cells, and n is the slope of the curve.
(Cellular ATP, detected with luciferase, serves as a proxy for viable cell number.)

The subject of series [2] is NCI-H929 multiple myeloma cells. The series is described as above. It is filed as cell-based, human. The procedure: as §1, §2, §3
The subject of series [3] is OPM-2 multiple myeloma cells. Described as above. It is filed as cell-based, human. Conditions: 96 hours total culture. The procedure:
as §1, §2, §3

Series [4] concerns RPMI-8226 multiple myeloma cells. The description is as above. It is filed as cell-based, human. Particulars: 96 hours total culture. The procedure: as §1, §2, §3
Series [5] relates to MV4-11 leukemia cells. The series is described as follows: Cell growth inhibition, Cell Titer-Glo (Example 4). It is filed as cell-based, human. Conditions: 96 total hours of culture. The procedure:
The human leukemia cell line MV4-11 cells were placed in a 96-well microculture plate (Costar white, flat bottom #3917) in a total volume of 90 μL/well. After 24 hours of incubation in a humidified incubator at 37° C. with 5% CO2 and 95% air, 10 μL of 10×, serially diluted tris(8-quinolinolato)gallium(III) in growth medium was added to each well. After 96 total hours of culture in a CO2 incubator, the plated cells and Cell Titer-Glo (Promega #G7571) reagents were brought to room temperature to equilibrate for 30 minutes. 100 μL of Cell Titer-Glo® reagent was added to each well. The plate was shaken for 2 minutes and then left to equilibrate for 10 minutes before reading luminescence on the Tecan GENios microplate reader. Percent inhibition of cell growth was calculated relative to untreated control wells. All tests were performed in duplicate at each concentration level. The IC50 value for the test agent was estimated using Prism 3.03 by curve-fitting the data using the following four parameter-logistic equation: […]
where Top is the maximal % of control absorbance, Bottom is the minimal of control absorbance at the highest agent concentration, Y is the % of control absorbance, X is the agent concentration, IC50 is the concentration of agent that inhibits cell growth by 50% compared to the control cells, and n is the slope of the curve. […]

Series [6] relates to BJAB lymphoma cells. Briefly: LDH release cytotoxicity assay. It counts as cell-based, human. Particulars: 1 hour exposure. The procedure:
Cytotoxicity of the different drugs was measured by the release of lactate dehydrogenase (LDH). After incubation with different concentrations of tris(8-quinolinolato)gallium(III) for 1 hour, LDH activity released by BJAB cells was measured in the cell culture supernatants using the Cytotoxicity Detection Kit from Boehringer Mannheim® (Mannheim, Germany). The supernatants were centrifuged at 1500 rpm for 5 min. 20 μl of cell-free supernatants were diluted with 80 μl phosphate-buffered saline (PBS), and 100 μl reaction mixture containing 2-[4-iodophenyl]-3-[4-nitrophenyl]-5-phenyltetrazolium chloride (INT), sodium lactate, […] and diaphorase were added. Then, time-dependent formation of the reaction product was quantified photometrically at 490 nm. The maximum amount of LDH activity released by the cells was determined after lysis of the cells using 0.1% Triton X-100 in culture medium and set to represent 100% cell death.
Unspecific cytotoxic effects of the agent such as necrosis could be excluded by determination of extra cellular lactate dehydrogenase (LDH) via ELISA detection.
In general terms: LDH in the medium is a marker of cell lysis.

Series [7] has as its system BJAB lymphoma cells. The series is described as follows: Cell viability and proliferation, CASY Cell Counter. It is filed as cell-based, human. The procedure:
FIG. 1 is a graph showing cell viability and inhibition of proliferation of BJAB lymphoma cells by tris(8-quinolinolato)gallium(III), which inhibits proliferation in a dose-dependent manner up to 100% (exposure time 24 hours);
Cell viability was determined by using the CASY® Cell Counter+Analyzer System of Innovatis (Bielefeld, Germany). Settings were specifically defined for the requirements of the cells used. With this system the cell concentration can be analyzed simultaneously in three different size ranges: thus cell debris, dead cells, and viable cells could be determined in one measurement. Cells were seeded at a density of 1×10^5cells/ml and treated with different concentrations of […]; non-treated cells served as controls. After a 24-hour incubation period, cells were re-suspended completely, and 100 μl of each well were diluted in 10 ml CASYton (ready-to-use isotonic saline solution) for immediate automated counting.
In order to assess the antiproliferative effects of tris(8-quinolinolato)gallium(III), BJAB lymphoma cells were exposed to various concentrations of the drug for 24 hours. The determination of cell viability and cell count were carried out with a CASY® Cell Counter and Analyzer System.

Series [8] has as its system BJAB lymphoma cells. The series is described as follows: Apoptosis induction, flow cytometric hypodiploid DNA (DNA fragmentation). It counts as cell-based, human. Conditions: 72 hours. The procedure: FIG. 3 is a diagram showing apoptosis induction measured via flow cytometric determination of hypodiploid DNA in BJAB cells after treatment with tris(8-quinolinolato)gallium(III) for 72 hours. Data are given in % hypodiploidy (subG1)±ESD (n=3), which is consistent with the number of apoptotic cells;
DNA fragmentation on the single cell level.
To quantify the induction of apoptosis triggered by tris(8-quinolinolato)gallium(III) we determined the DNA fragmentation (hypodiploidy) as a characteristic effect of apoptotic cell death. The procedure was conducted by flow cytometric measurement of hypodiploid DNA after incubating lymphoma cells (BJAB) for 72 hours with the agent. Extensive apoptosis induction could be reached even in low concentrations of the agent (AC50: ˜1 μM), seen in FIG. 3.

Series [9] deals with caspase-9 and caspase-3 in BJAB cells. The series is described as follows: Western blot analysis of caspase activation. It is filed as cell-based, human. Particulars: 24 hours. The procedure: FIG. 6 includes chromatograms showing Western blot analysis of tris(8-quinolinolato)gallium(III)-treated BJAB cells. Epirubicin was used as a positive control. After incubation for 24 hours the protein extracts were fractionated on a denaturating 4-20% polyacrylamide gel, transferred to nitrocellulose and detected with anti-caspase-31-9 and anti-β-actin antibody. A: caspase-9 (procaspase: 47 kDa; cleavage product: 37 kDa), B: caspase-3 (procaspase: 32 kDa; cleavage products: 18 and 17 kDa), C: β-actin (42 kDa);
For Western blot analysis, cytosolic protein ([…]) was loaded in each lane and was separated by sodium dodecylsulfate (SDS) PAGE. After blotting of proteins onto nitrocellulose membranes (Schleicher and Schuell, Dassel, Germany), the membrane was blocked for 1 h in PBST (PBS containing 0.05% Tween-20) containing 3% nonfat dry milk and incubated with primary antibody overnight at 4° C. After the membrane had been washed three times in PBST, secondary antibody in PBST was applied for 1 h. […]
Further evidence for apoptosis via the intrinsic pathway was obtained by investigating the consecutive activation of caspase-9 and -3 by Western blot analysis. […] The activation of both caspases by proteolytic cleavage was determined after treatment of BJAB cells with tris(8-quinolinolato)gallium(III). […]
For orientation: Immunoblotting shows a protein as a band on a membrane.

In series [10] the test system is Harakiri gene expression in BJAB cells. Briefly: Real-time PCR apoptosis gene expression array. It is filed as cell-based, human. Particulars: 2.5 μM, 8 hours. The procedure:
(§4) For the analysis of the differential expression of multiple genes involved in the different apoptosis pathways, apoptosis-specific RT2 profiler (polymerase chain reaction) PCR expression arrays (SuperArray PAHS-012; SABiosciences Corporation, Frederick, Md., USA) was used according to the manufacturer's instructions. Total RNA was extracted from BJAB cells treated with […] for 8 hours, and RNAs were treated with DNase I (2 U/μl) to eliminate possible genomic DNA contamination. Total RNA (700 ng/μl) was then used as a template for the synthesis of a cDNA probe and subjected to quantitative real-time PCR SuperArray analysis according to the manufacturer's instructions using a LightCycler480 (Roche Diagnostics). The means of nine housekeeping genes were used to normalize the hybridization signals. Results were analyzed using SuperAnay Analyser Software, and the data are given in-fold expression of the respective genes as compared with control cells incubated in vehicle-containing medium for 8 hours.
(§5) Changes of transcript levels of apoptosis relevant genes were analyzed in RNA isolated from BJAB cells after 8 hours of incubation with 2.5 μM tris(8-quinolinolato)gallium(III). […] Harakiri (Hrk) is a pro-apoptotic Bcl-2 homology domain 3-only protein of the Bcl-2 family.

Series [11] deals with caspase-5 gene expression in BJAB cells. Briefly: Real-time PCR apoptosis gene expression array. Particulars: 2.5 μM, 8 hours. It counts as cell-based, human. The procedure: as §4, §5
Series [12] deals with DoHH2 Human EBV-negative B Cell Lymphoma cells. Briefly: Anti-proliferation assay, Cell Titer-Glo (Example 6). It counts as cell-based. Particulars: 96 total hours of culture. How it is done: (§6) To determine the antiproliferative activity of tris(8-quinolinolato)gallium(III) in human lymphoma tumor cell lines, anti-proliferation assays were conducted in the DoHH2. Granta 519, and WSU-DLCL2 cell lines. The DoHH2 Human EBV-negative B Cell Lymphoma cells were seeded with 5,000 cells/well and grown in RPMI1640 medium containing 20% FBS, and 2 mM L-Glutamine. The Granta 519 Human Mantle Cell Lymphoma cells were seeded with 10,000 cells/well and grown in DMEM medium containing 10% FBS, and 2 mM L-Glutamine. The WSU-DLCL2 Human B Cell Lymphoma cells were seeded with 5,000 cells/well and grown in RPMI1640 medium containing 10% FBS, and 2 mM L-Glutamine. Specifically, the human tumor cells were placed in a 96-well microculture plate at the appropriate density for 96 hours of total growth time. After 24 hours of incubation in a humidified incubator at 37° C. with 5% CO2 and 95% air, serially diluted test agents in growth medium were added to each well. After 96 total hours of culture in a CO2 incubator, the plates were processed with Cell Titer-Glo (Promega #G7571) according to manufacturer's instructions. Luminescence was detected using a Tecan GENios microplate reader. Percent inhibition of cell growth was calculated relative to untreated control wells. All tests were performed in duplicate at each concentration level. The IC50 value for the test agents was estimated using Prism 3.03 by curve-fitting the data using the four parameter-logistic equation as described in Example 4 above. […] It is known that WSU-DLCL2 cells are resistant to the CHOP (cyclophosphamide, adriamycin, vincristine, prednisone) regimen. See Levi et al., Cancer Chemother. Pharmacal., (published online Aug. 31, 2010). Thus, tris(8-quinolinolato)gallium(III) is also active against lymphoma cells resistant to drugs. such as cyclophosphamide, adriamycin, vincristine, prednisone.

Series [13] concerns Granta 519 Human Mantle Cell Lymphoma cells. The description is as above. It counts as cell-based. Conditions: 96 total hours of culture. The procedure: as §6
Series [14] concerns WSU-DLCL2 Human B Cell Lymphoma cells. Described as above. It counts as cell-based. Conditions: 96 total hours of culture. The procedure: as §6
Series [15] concerns CCRF-CEM, Jurkat, MOLT-4 cell lines. Particulars: read-out: IC50, inhibiting cell growth and proliferation; all cell lines of Table 1; 48 hours with drug; XTT.
Method: Cells have been expanded under appropriate culture conditions until sufficient cells were available for the assay. Adherent cells were trypsinated. Cell count and viability of the cells were determined (Casy T T, Schärfe Systems). The Cells (viability >95%) were seeded in 100 μl of cell culture medium at the appropriate density of living cells into 96-well tissue culture plates. The cells were incubated at 37° C. and 5% CO2 for 24 hours.
For a negative control, 100 μl of cell culture medium were added to three wells (100% value). For a positive control all cells were deadened with phenol (0% value). The cells were incubated with the drug for further 48 hours at 37° C. and 5% CO2.
XTT assays were performed on the above treated cells. XTT is a tetrazolium salt that can be cleaved by “succinate-tetrazolium reductase”, a mitochondrial redox-system that is exclusively active in living cells. The cleavage results in a soluble formazan salt that can be quantified by colorimetric measuring at 450 nm. The intensity of the orange color is directly linked to the number of living, metabolically active cells. A concentrated stock solution (1 mg/ml PBS) of XTT (Sigma-Aldrich) was prepared, aliquoted, filtered and stored at −20° C. […] The developed formazan was quantified in an absorbance micro plate reader (Genios, Tecan) at a measurement wavelength of 450 nm and a reference wavelength of 690 nm.
Series [16] concerns vincristine-resistant Nalm-6 cells. Particulars: vincristine-resistant Nalm-6, P-gp overexpressing; 72 hours.
Method: (§7) After 72 hours of incubation with different concentrations of the agent, DNA fragmentation was measured via FACS scan analysis. […] Values of DNA fragmentation are given as percentages of cells with hypodiploid DNA±s.d. (n=3);
(§8) Apoptotic cell death was determined by a modified cell cycle-analysis, which detects. DNA fragmentation on the single cell level. […] After a 72-hour incubation period at a temperature of 37° C., cells were collected by centrifugation at 1500 rpm for 5 min, washed with PBS at 4° C. and fixed in PBS/2% (v/v) formaldehyde on ice for 30 minutes. After fixation, cells were pelleted, incubated with ethanol/PBS (2:1, v/v) for 15 minutes, pelleted and resuspended in PBS containing 40 μg/ml RNase. RNA was digested for 30 minutes at a temperature of 37° C., after which the cells were pelleted again and finally resuspended in PBS containing 50 μg/ml propidium iodide. Nuclear DNA fragmentation was quantified by flow cytometric determination of hypodiploid DNA. Data were collected and analyzed using a FACScan instrument (Becton Dickinson, Heidelberg, Germany) equipped with CELL Quest software. Data are given in percent hypodiploidy (subG1), which reflects the number of apoptotic cells.
In series [17] the test system is daunorubicin-resistant Nalm-6 cells. Particulars: daunorubicin-resistant Nalm-6, P-gp overexpressing; 72 hours.
Method: as §7, §8

Turning to `Nc1cccc2c1CN(C1CCC(=O)NC1=O)C2=O` (stereo not drawn) [Lenalidomide, lenalidomide, reference compound], the IC50 entry in series [1] was “Inactive”; in series [2] (Homo sapiens, NCI-H929, 96 hours total culture), 5.28 µM; in series [3] (Homo sapiens) it was 5.83 µM; in [4], “Inactive”.
The AC50 is the concentration at which the activity in the assay is half-maximal. Read a high AC50 as weaker potency. As to `[Ga+3].[O-]c1cccc2cccnc12.[O-]c1cccc2cccnc12.[O-]c1cccc2cccnc12` [tris(8-quinolinolato)gallium(III)], the IC50 in [1] (read-out: IC50) was 0.89 µM; in series [2] (96 hours total culture), 1.57 µM; in series [3], 0.74 µM; in [4] (read-out: IC50) it was 0.82 µM; in series [5], 1.44 µM; in series [7] (24 hours, read-out: IC50, inhibition of proliferation) it was below 1 µM. Also, the IC50 in series [12] is 0.213 µM; in [13], 2.9 µM; in [14], 1.47 µM; in [15] it was below 3.5 µM. Besides, in series [6], the “LDH release (unspecific cytotoxicity, necrosis)” value is “negligible; also recorded: no significant LDH release”. Besides, the “concentration giving complete block of proliferation” value in [7] (24 hours) is at least 2 µM. Moreover, the “inhibition of proliferation, maximal” value in series [7] (exposure time 24 hours) was “up to 100%”. The compound also had a half-maximal activity concentration (AC50) in series [8] of around 1 µM. In addition, the CC50 in series [8] (read-out: LC50, apoptosis by DNA fragmentation) is around 1 µM. Moreover, the “processing of procaspase-3 and procaspase-9” value in [9] was “induces processing of procaspase-3 (p32) and procaspase-9 (p47)”. The “Harakiri gene expression, upregulation” value in series [10] turned out to be 29 fold. In addition, in series [11], the “caspase-5 gene expression, upregulation” value is recorded as 118 fold. In addition, the “apoptosis (DNA fragmentation) in resistant cells versus control cells” value in series [16] and in series [17] was “higher apoptotic amounts in the resistant cells compared to the control cells” in each case.
